In PMC6930659, “Antiprotozoal Activity of Turkish Origanum onites Essential Oil and Its Components” (Molecules, 2019):
Converted amounts (≈) assume the structure as drawn. Where two headings read alike, the source gives them in different places.

Assays:
[1] = tested on: T. brucei bloodstream forms; design: method as in PMID 10865458; conditions: cited from earlier work
[2] = tested on: L. donovani (strain MHOM/ET/67/L82) amastigotes; assay: In vitro assay for Leishmania donovani axenic amastigotes (resazurin); type: cell-based; conditions: axenic amastigotes, 72 h, means of two determinations ± deviation, read-out: IC50 Leishmania donovani
Protocol: Amastigotes of L. donovani (strain MHOM/ET/67/L82) were grown in axenic culture at 37 °C in SM medium at pH 5.4 supplemented with 10% heat-inactivated FBS under an atmosphere of 5% CO2. Culture medium (100 μL) with 10^5 amastigotes from axenic culture with or without a serial drug dilution was seeded in 96 well microtiter plates. Serial drug was prepared covering a range of dilutions from 90 to 0.123 μg/mL. After 72 h of incubation, the plates were inspected under an inverted microscope to assure growth of the controls and sterile conditions. Subsequently, 10 μL resazurin solution (12.5 mg resazurin dissolved in 100 mL double-distilled water) was added to each well and the plates were incubated for another 2 h. The plates were then read with a Spectramax Gemini XS microplate fluorometer (Molecular Devices Cooperation, Sunnyvale, CA, USA) using an excitation wavelength of 536 nm and an emission wavelength of 588 nm. Data were analyzed using the software Softmax Pro (Molecular Devices Cooperation, Sunnyvale, CA, USA). A decrease of fluorescence (=inhibition) was expressed as percentage of the fluorescence of control cultures and plotted against the drug concentrations. From the sigmoidal inhibition curves, the IC50 values were calculated. Miltefosine was used as a reference drug.

[3] = In vitro assay for cytotoxicity on mammalian cells (resazurin); type: cell-based, rat
Protocol: Assays were performed in 96 well microtiter plates (4 × 10^4 L6 cells/well), each well containing 100 μL of RPMI 1640 medium supplemented with 1% L-glutamine (200 mM) and 10% FBS. L6 cells are a primary cell line derived from rat skeletal myoblasts. Serial drug dilutions of seven 3-fold dilution steps covering a range from 90 to 0.123 μg/mL were prepared. After 72 h of incubation, the plates were inspected under an inverted microscope to assure growth of the controls and sterile conditions. Resazurin solution (10 μL) (12.5 mg resazurin in 100 mL double-distilled water) was then added to each well and the plates incubated for another 2 h. The plates were then read with a Spectramax Gemini XS microplate fluorometer (Molecular Devices Cooperation, Sunnyvale, CA, USA) using an excitation wavelength of 536 nm and an emission wavelength of 588 nm. Data were analyzed using the microplate reader software Softmax Pro (Molecular Devices Cooperation, Sunnyvale, CA, USA). From the sigmoidal inhibition curves, the IC50 values were calculated. Podophyllotoxin was the positive control.

[4] = tested on: Trypanosoma brucei rhodesiense STIB 900; assay: In vitro assay for Trypanosoma brucei rhodesiense (resazurin); type: cell-based; conditions: Trypanosoma brucei, 72 h, STIB 900 blood stream forms, 72 h; means of two independent determinations ± deviation from the mean; read-out: IC50 Trypanosoma brucei rhodesiense
Protocol: Trypanosoma brucei rhodesiense STIB 900 strain, isolated in 1982 from a human patient in Tanzania and, after several mouse passages, cloned and adapted to axenic culture conditions, was used in this assay. Minimum essential medium (50 μL) supplemented with 25 mM HEPES, 1 g/L additional glucose, 1% MEM non-essential amino acids (100×), 0.2 mM 2-mercaptoethanol, 1 mM Na-pyruvate, and 15% heat inactivated horse serum was added to each well of a 96 well microtiter plate. Serial drug dilutions of seven 3-fold dilution steps covering a range from 90 to 0.123 μg/mL were prepared, and then 4 × 10^4 blood stream forms of T. b. rhodesiense STIB 900 in 50 μL were added to each well and the plate was incubated at 37 °C under a 5% CO2 atmosphere for 72 h. Resazurin solution (resazurin, 12.5 mg in 100 mL double-distilled water) (10 μL) was then added to each well and incubated for a further 2–4 h. At the end of the assay, the plates were read with a Spectramax Gemini XS microplate fluorometer (Molecular Devices Cooperation, Sunnyvale, CA, USA) using an excitation wavelength of 536 nm and an emission wavelength of 588 nm. Data were analyzed using the microplate reader software Softmax Pro (Molecular Devices Cooperation, Sunnyvale, CA, USA). Melarsoprol was used as standard drug.

[5] = tested on: T. cruzi Tulahuen strain C2C4; assay: In vitro assay for Trypanosoma cruzi in L-6 cells (β-galactosidase/CPRG); type: cell-based; conditions: Trypanosoma cruzi, L6; Tulahuen C2C4 in L-6 cells, 96 h; highest concentration tested 90 μg/mL; means of two determinations ± deviation
Protocol: Rat skeletal myoblasts (L-6 cells) were seeded in 96 well microtiter plates (2000 cells/well) in 100 μL RPMI 1640 medium with 10% FBS and 2 mM L-glutamine for 24 h. After that, the medium was removed and replaced by 100 μL per well containing 5000 trypomastigote forms of T. cruzi Tulahuen strain C2C4, containing the β-galactosidase (Lac Z) gene. The medium was removed from the wells after 48 h, and replaced with 100 μL fresh medium with or without a serial drug dilution of seven 3-fold dilution steps covering a range from 90 to 0.123 μg/mL. After 96 h of incubation, the plates were inspected under an inverted microscope to assure growth of the controls and sterility, after which the substrate CPRG/Nonidet ([…]) was added to all wells. A color reaction developed within 2–6 h and could be read photometrically at 540 nm. Data were transferred into the graphic program Softmax Pro (Molecular Devices Cooperation, Sunnyvale, CA, USA) and the IC50 values were calculated from the sigmoidal dose response curves. Benznidazole was the reference drug.

P. falciparum K1 strain = assay: In vitro assay for Plasmodium falciparum ([3H]-hypoxanthine incorporation); type: cell-based; conditions: K1 strain (chloroquine- and pyrimethamine-resistant), erythrocytic stages, means of two determinations ± deviation, read-out: IC50 Plasmodium falciparum
Protocol: Activity against the erythrocytic stages of P. falciparum was determined using an in vitro modified [^3H]-hypoxanthine incorporation assay, using the chloroquine- and pyrimethamine-resistant K1 strain [68]. Compounds were dissolved in DMSO at 10 mg/mL and further diluted in medium before added to parasite cultures incubated in RPMI 1640 medium without hypoxanthine, supplemented with HEPES (5.94 g/l), NaHCO3 (2.1 g/L), neomycin (100 U/mL), AlbumaxR (5 g/L), and washed human red cells A+ at 2.5% haematocrit (0.3% parasitaemia). Serial drug dilutions of seven 3-fold dilution steps covering a range from 90 to 0.123 μg/mL were prepared. The 96 well plates were incubated in a humidified atmosphere at 37 °C; 4% CO2, 3% O2, 93% N2. After 48 h 50 μL of ^3H-hypoxanthine (=0.5 μCi) was added to each well of the plate. The plates were incubated for a further 24 h under the same conditions. The plates were then harvested with a Betaplate™ cell harvester (Wallac, Zurich, Switzerland), and the red blood cells transferred onto a glass fiber filter then washed with distilled water. The dried filters were inserted into a plastic foil with 10 mL of scintillation fluid, and counted in a Betaplate™ liquid scintillation counter (Wallac, Zurich, Switzerland). […] IC50 values were calculated from the sigmoidal inhibition curves using Microsoft Excel. Chloroquine was used as positive control drug.

T. brucei brucei STIB795 = assay: In vivo trypanocidal activity, T. brucei brucei STIB795 mouse model; design: species or system Trypanosoma brucei brucei; conditions: 5.0 mg/kg × 4 days i.p., NMRI mice; for Mean Survival: untreated control 5.25 days
Protocol: In vivo efficacy studies in mice were conducted at the Swiss Tropical and Public Health Institute (Basel) (License number 2813) according to the rules and regulations for the protection of animal rights (“Tierschutzverordnung”) of the Swiss “Bundesamt für Veterinärwesen”. They were approved by the veterinary office of Canton Basel-Stadt, Switzerland. Groups of four female NMRI mice weighing 20 to 25 g were infected i.p. on Day 0 (d0) with 10^5 bloodstream forms of T. brucei brucei STIB 795, which is a derivative of strain 427. Compounds were formulated in 100% DMSO diluted 10-fold in distilled water. Mice were treated on four consecutive days (d3 to d6 post-infection) with the Origanum onites oil, as well as carvacrol and thymol, at 100 mg/kg by the i.p. route. One group served as untreated controls, and two other groups were treated with the standard drugs pentamidine (5 mg/kg for 4 days) and melarsoprol (2 mg/kg for 4 days), respectively. The levels of parasitemia of the mice were checked by microscopic examination of tail blood on Day 7 and thereafter twice a week until Day 30 post infection. Mice were considered cured when there was no parasitaemia relapse detected in the tail blood over the 30 day observation period. The day of relapse and surviving days were recorded.

T. cruzi amastigotes = tested on: T. cruzi amastigotes; design: method as in doi:10.1080/10412905.2013.820669; conditions: cited from earlier work
T. b. brucei = tested on: T. b. brucei; design: method as in PMID 29778466; conditions: blood stream trypomastigotes cultures; AnTart 1 strain, wild type; cited from earlier work
T. cruzi epimastigotes = tested on: T. cruzi epimastigotes; design: method as in doi:10.1080/10412905.2013.820669; conditions: cited from earlier work
[6] = L6 cells (rat skeletal myoblasts), rat skeletal myoblasts, 72 h, means of two determinations ± deviation, read-out: IC50 Cytotoxicity L6 cells
[7] = rat skeletal myoblasts, 72 h, means of two determinations ± deviation, read-out: IC50 Cytotoxicity L6 cells

Compound: CC1=CCC(O)(C(C)C)CC1 (stereo not shown) [Terpinen-4-ol]
- ED50 T. brucei bloodstream forms [1]: 0.02 µg/mL (≈ 0.13 µM)
- selectivity to the parasite than to the human cell line [1]: 1000 fold
- IC50 [2]: 68.7 ± 14.2 µg/mL (≈ 445 µM)
- IC50 at 72 h [3, 6]: 43.3 ± 16.5 µg/mL (≈ 281 µM)
- IC50 [4]: 0.66 ± 0.4 µg/mL (≈ 4.28 µM)
- IC50 [5]: 46.8 ± 7.4 µg/mL (≈ 303 µM)
- IC50 (P. falciparum K1 strain): > 20 µg/mL

Compound: N=C(N)c1ccc(OCCCCCOc2ccc(C(=N)N)cc2)cc1 [Pentamidine, reference compound]
- Cured/Infected (T. brucei brucei STIB795): 4/4
- Mean Survival (T. brucei brucei STIB795): >30 days
- Mean Survival (T. brucei brucei STIB795; listed as pentamidine): over 30 days

Compound: CC1=CCC2CC1C2(C)C (stereo not drawn) [α-Pinene]
- IC50 [2]: 81.9 ± 9 µg/mL (≈ 601 µM)
- IC50 at 72 h [3, 6]: 87.8 ± 3 µg/mL (≈ 644 µM)
- IC50 T. cruzi amastigotes (T. cruzi amastigotes): 1.92 µg/mL (≈ 14.1 µM)
- IC50 [4]: 0.42 ± 0.24 µg/mL (≈ 3.08 µM)
- IC50 T. b. brucei (T. b. brucei): 2.9 µg/mL (≈ 21.3 µM)
- IC50 T. cruzi epimastigotes (T. cruzi epimastigotes): 2.74 µg/mL (≈ 20.1 µM)
- IC50 [5]: > 90 µg/mL
- IC50 (P. falciparum K1 strain): 10.7 ± 1.2 µg/mL (≈ 78.5 µM)

Compound: CCCCCCCCCCCCCCCCOP(=O)([O-])OCC[N+](C)(C)C [miltefosine, reference compound]
- IC50 [2]: 0.2 µg/mL (≈ 0.491 µM)

Compound: C=C1CC/C=C(\C)CC[C@@H]2[C@@H]1CC2(C)C [β-Caryophyllene]
- IC50 [2]: 52.4 ± 17.4 µg/mL (≈ 256 µM)
- IC50 at 72 h [3, 6]: 62.2 ± 7 µg/mL (≈ 304 µM)
- IC50 [4]: 28.9 ± 11.8 µg/mL (≈ 141 µM)
- IC50 [5]: 50.1 ± 12.5 µg/mL (≈ 245 µM)
- IC50 (P. falciparum K1 strain): 12.8 µg/mL (≈ 62.6 µM)

Compound: COc1cc([C@@H]2c3cc4c(cc3[C@H](O)[C@H]3COC(=O)[C@H]23)OCO4)cc(OC)c1OC [phodophyllotoxin, reference compound]
- IC50 at 72 h [3, 7]: 0.004 µg/mL (≈ 0.00965 µM)

Compound: COc1cc(C)ccc1C(C)C [Thymol Methyl Ether]
- IC50 [2]: 86 ± 1.9 µg/mL (≈ 524 µM)
- IC50 at 72 h ([3]; rat): > 90 µg/mL
- IC50 [4]: 4.1 ± 1.97 µg/mL (≈ 25 µM)
- IC50 [5]: > 90 µg/mL
- IC50 (P. falciparum K1 strain): > 20 µg/mL

Compound: CC1=CC[C@@H](C(C)(C)O)CC1 [α-Terpineol]
- IC50 [2]: 75.9 ± 4.7 µg/mL (≈ 492 µM)
- IC50 [3, 7]: 32.3 ± 0.1 µg/mL (≈ 209 µM)
- IC50 [4]: 0.56 ± 0.4 µg/mL (≈ 3.63 µM)
- IC50 [5]: 61 ± 2.1 µg/mL (≈ 395 µM)
- IC50 (P. falciparum K1 strain): > 20 µg/mL

Compound: CC1(C)C2CCC1(C)C(O)C2 (stereo not shown) [Borneol]
- IC50 [2]: 52.1 ± 16.6 µg/mL (≈ 338 µM)
- IC50 at 72 h [3, 6]: > 90 µg/mL
- IC50 [4]: 24.3 ± 11.8 µg/mL (≈ 158 µM)
- IC50 [5]: > 90 µg/mL
- IC50 (P. falciparum K1 strain): > 20 µg/mL
